In PubChem BioAssay AID1963428 (Molecular Pharmacology Branch, DTP, NCI, 2024):

Test system: 171881-019-R-J1-PDC complex spheroid growth, % test/control
Assay: Anticancer human tumor 171881-019-R-J1-PDC patient-derived invasive breast carcinoma cell line growth inhibition [Asc]
Settings: for IC50: curve of first compound; for viability, T/C: stronger effect = lower value
Protocol: Multicellular complex tumor spheroid response to apoptosis pathway targeting inhibitors Alrizomadlin, Pelcitoclax, and Dasminapant in combination with a variety of drugs and investigational agents in selected tumor cell lines
The MDM2 inhibitor alrizomadlin, the Bcl-2/Bcl-xL inhibitor pelcitoclax, and the IAPs inhibitor dasminapant were evaluated both individually and in combination with standard of care and investigational anticancer small molecules within a complex spheroid model of solid tumors. . Complex spheroids include a stromal component modeled by human endothelial cells (HUVEC) and fibroblasts modeled by human mesenchymal stem cells (MSCs). The concentration ranges selected for each drug and investigational agent were based upon clinically achievable concentrations if the clinical Cmax of the agent was known.
Compounds. The drugs and investigational agents: alrizomadlin (APG-115; NSC831270), pelcitoclax (APG-1252; NSC835773), dasminapant (APG-1387;NSC834197), TAK-243 (NSC785004), copanlisib (NSC809693), olaparib (NSC753686), talazoparib (NSC767125), cobimetinib (NSC 768068), eltanexor (KPT-8602, NSC 794443), abemaciclib (NSC 768073), sotorasib (NSC818433), adagrasib (NSC 831453), MRTX-1133 (NSC 836407), Iadademestat (ORY1001, NSC 806812), and RMC-4630 (NSC839698), were obtained from the NCI Developmental Therapeutics Program Chemical Repository. The FDA-approved anticancer drug set is available from the Developmental Therapeutics Program at https://dtp.cancer.gov/organization/dscb/obtaining/available plates.htm. […] The stock solutions were prepared in dimethyl sulfoxide (DMSO, Sigma-Aldrich, St. Louis, MO, cat. D2650) at 800-fold the tested concentration and stored at -70 degrees C prior to their use. All drugs and investigational agents were tested over a range starting from a high concentration at or near the clinical Cmax and decreasing in half-log increments. If the clinical Cmax for an agent had not been determined, the highest concentration tested was 10 microM.
The patient-derived cancer (PDC) cell lines include five colon adenocarcinomas: 186277-243-T-J2-PDC, 616215-338-R-J1-PDC, 439559-082-T-J2-PDC, 463943-066-T-J2-PDC, and 519858-162-T-J1-PDC; three pancreatic carcinomas: 323965-272-R-J2-PDC, 521955-158-R6-J3-PDC, and 521955-158-R2-J5-PDC; two uterine sarcomas: 327498-152-R-J2-PDC and 993429-296-R-J1-PDC; two rhabdomyosarcomas: 755483-174-R-J1-PDC and 772245-204-R-J1-PDC; two soft tissue sarcomas: 126254-015-R-J1-PDC and 494315-158-R-J1-PDC; two malignant fibrous histiocytomas: 317291-083-R-J1-PDC and 596521-263-R-J1-PDC; two breast carcinomas: 171881-019-R-J1-PDC and 885512-296-R-J2-PDC; and one ovarian carcinoma: 6556581-035-R-J-PDC were obtained from the NCI PDMR, (https://pdmr.cancer.gov). The established cell lines HSSY-2 synovial sarcoma (RRID:CVCL 8719), SYO-1 synovial sarcoma (RRID:CVCL_7146), MPNST malignant peripheral neural sheath tumor were obtained from the Sloan Kettering Institute. The following established cell lines were purchased from the American Type Culture Collection (ATCC, Manassas, VA), Sor the received from the NCI repository:, PANC-1 pancreatic carcinoma (CRL-1469, RRID:CVCL_0480), OVCAR-5 ovarian carcinoma (RRID:CVCL_1628), OVCAR-8 ovarian carcinoma (RRID:CVCL_1629), , MCF-7 breast carcinoma (CRL-12584, RRID:CVCL_0031), MDA-MB-231 breast carcinoma (CRL-12532, RRID:CVCL_0062), NCI-H1876 small cell lung carcinoma (CRL-5902, RRID:CVCL_1503), NCI-H510A small cell lung carcinoma (HTB-184, RRID:CVCL_1565), NCI-H1417 (CRL-5869, RRID:CVCL_1469), and NCI-H196 small cell lung carcinoma (CRL-5823, RRID:CVCL_1509). Dr. Peter Houghton (Greehey Children's Cancer Research Institute, University of Texas Health Science Center, San Antonio, TX) provided Rh-18 rhabdomyosarcoma (RRID:CVCL_1659). Pooled donor human umbilical vein endothelial cells (HUVEC, Lonza, cat. CC-2519) and human mesenchymal stem cells (hMSC, Lonza, cat. PT-2501) were purchased from Lonza (Walkersville, MD).
Cell Culture. […]

[1] = second compound 0.03 µM, first compound 0.0316 µM
[2] = second compound 0.03 µM, first compound 0.1 µM
[3] = second compound 0.03 µM, first compound 0.316 µM
[4] = second compound 0.03 µM, first compound 1 µM
[5] = second compound 0.03 µM, first compound 3.16 µM
[6] = second compound 0.03 µM, first compound 10 µM
[7] = second compound 0.0949 µM, first compound 0.0316 µM
[8] = second compound 0.0949 µM, first compound 0.1 µM
[9] = second compound 0.0949 µM, first compound 0.316 µM
[10] = second compound 0.0949 µM, first compound 1 µM
[11] = second compound 0.0949 µM, first compound 3.16 µM
[12] = second compound 0.0949 µM, first compound 10 µM
[13] = second compound 0.3 µM, first compound 0.0316 µM
[14] = second compound 0.3 µM, first compound 0.1 µM
[15] = second compound 0.3 µM, first compound 0.316 µM
[16] = second compound 0.3 µM, first compound 1 µM
[17] = second compound 0.3 µM, first compound 3.16 µM
[18] = second compound 0.3 µM, first compound 10 µM
[19] = second compound 0.949 µM, first compound 0.0316 µM
[20] = second compound 0.949 µM, first compound 0.1 µM
[21] = second compound 0.949 µM, first compound 0.316 µM
[22] = second compound 0.949 µM, first compound 1 µM
[23] = second compound 0.949 µM, first compound 3.16 µM
[24] = second compound 0.949 µM, first compound 10 µM
[25] = second compound 3 µM, first compound 0.0316 µM
[26] = second compound 3 µM, first compound 0.1 µM
[27] = second compound 3 µM, first compound 0.316 µM
[28] = second compound 3 µM, first compound 1 µM
[29] = second compound 3 µM, first compound 3.16 µM
[30] = second compound 3 µM, first compound 10 µM
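For viability, T/C in this document: spheroids exposed to compounds for 7 days.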

Structure (SMILES)	IC50 (second compound 0.03 µM)	IC50 (second compound 0.0949 µM)	IC50 (second compound 0.3 µM)	IC50 (second compound 0.949 µM)	IC50 (second compound 3 µM)	viability, T/C [1]	viability, T/C [2]	viability, T/C [3]	viability, T/C [4]	viability, T/C [7]	viability, T/C [8]	viability, T/C [9]	viability, T/C [10]	viability, T/C [13]	viability, T/C [14]	viability, T/C [15]	viability, T/C [16]	viability, T/C [19]	viability, T/C [20]	viability, T/C [21]	also measured
O=C(c1cc(Cc2n[nH]c(=O)c3ccccc23)ccc1F)N1CCN(C(=O)C2CC2)CC1 + CCN1C(C(=O)NC23CCC(C(=O)O)(CC2)CC3)C(c2cccc(Cl)c2F)C2(C(=O)Nc3cc(Cl)ccc32)C12CCCCC2	> 10 µM	> 10 µM	> 10 µM	> 10 µM	> 10 µM	123%	101%	102%	105%	113%	92.5%	115%	97.5%	102%	116%	117%	95.1%	110%	103%	105%	viability, T/C [5]: 94.5%; viability, T/C [6]: 103%; viability, T/C [11]: 110%; viability, T/C [12]: 113%; viability, T/C [17]: 114%; viability, T/C [18]: 107%; viability, T/C [22]: 102%; viability, T/C [23]: 103%; viability, T/C [24]: 108%; viability, T/C [25]: 108%; viability, T/C [26]: 121%; viability, T/C [27]: 101%; viability, T/C [28]: 94.9%; viability, T/C [29]: 113%; viability, T/C [30]: 106%
C#Cc1c(F)ccc2cc(O)cc(-c3ncc4c(N5CC6CCC(C5)N6)nc(OCC56CCCN5CC(F)C6)nc4c3F)c12 (stereo not given) + CCN1C(C(=O)NC23CCC(C(=O)O)(CC2)CC3)C(c2cccc(Cl)c2F)C2(C(=O)Nc3cc(Cl)ccc32)C12CCCCC2	> 10 µM	> 10 µM	> 10 µM	> 10 µM	> 10 µM	120%	116%	136%	192%	117%	117%	158%	208%	120%	127%	127%	204%	116%	123%	146%	viability, T/C [5]: 204%; viability, T/C [6]: 170%; viability, T/C [11]: 241%; viability, T/C [12]: 211%; viability, T/C [17]: 213%; viability, T/C [18]: 188%; viability, T/C [22]: 229%; viability, T/C [23]: 210%; viability, T/C [24]: 174%; viability, T/C [25]: 125%; viability, T/C [26]: 156%; viability, T/C [27]: 216%; viability, T/C [28]: 218%; viability, T/C [29]: 172%; viability, T/C [30]: 154%
COc1c(OCCCN2CCOCC2)ccc2c3n(c(=NC(=O)c4cnc(N)nc4)nc12)CCN3 + CCN1C(C(=O)NC23CCC(C(=O)O)(CC2)CC3)C(c2cccc(Cl)c2F)C2(C(=O)Nc3cc(Cl)ccc32)C12CCCCC2	0.0357 µM	0.0367 µM	0.0361 µM	0.0331 µM	0.0297 µM	48.1%	25.7%	3.58%	1.48%	55%	13.6%	3.64%	1.16%	53.8%	14.6%	3.71%	0.99%	50.9%	12.8%	3.5%	viability, T/C (second compound 0.03 µM, first compound 0.00316 µM): 158%; viability, T/C (second compound 0.03 µM, first compound 0.01 µM): 118%; viability, T/C (second compound 0.0949 µM, first compound 0.00316 µM): 182%; viability, T/C (second compound 0.0949 µM, first compound 0.01 µM): 141%; viability, T/C (second compound 0.3 µM, first compound 0.00316 µM): 143%; viability, T/C (second compound 0.3 µM, first compound 0.01 µM): 133%; viability, T/C (second compound 0.949 µM, first compound 0.00316 µM): 159%; viability, T/C (second compound 0.949 µM, first compound 0.01 µM): 126%; viability, T/C [22]: 1.21%; viability, T/C (second compound 3 µM, first compound 0.00316 µM): 171%; viability, T/C (second compound 3 µM, first compound 0.01 µM): 122%; viability, T/C [25]: 46.1%; viability, T/C [26]: 9.69%; viability, T/C [27]: 2.19%; viability, T/C [28]: 1.28%
